Measured values as given in US7744867B2, “PTPase inhibitors and method of using same” (The Cleveland Clinic Foundation, priority 2001, dated 2010).
Each block holds one compound with its values, some of them ahead of it.

Key:
[1] = tested on: NB4 cells; assay: Differentiation, proliferation and cell cycle of AML cell line; assay type: cell-based, human; conditions: 3 days; sodium stibogluconate 250 μg/ml, ATRA 1 μM
Procedure: Cell lines, cell culture, and cell proliferation assay. The NB4 cell line was a gift from Dr. Dan Lindner of CCF. HL60 and U937 cell lines were purchased from ATCC. These human AML cell lines were maintained in RPMI 1640 medium supplemented with 10% fetal calf serum (FCS). For cell proliferation assays, cells were cultured at 37° C. in 10% FCS medium containing various amounts of sodium stibogluconate for 6 days. The cell numbers in the cultures were determined by an MTT assay as described previously.
Differentiation of AML cell lines was assessed by their ability to produce superoxide as measured by reduction of NBT to formazan and by analysis of expression of CD11b surface marker by flow cytometry. For NBT reduction, each cell suspension was mixed with an equal volume of solution containing 1 mg/ml of NBT (Sigma) and 2.5 μg/ml of TPA for 30 minutes at 37° C. After incubation, cells containing the purple formazan deposits and cells devoid of NBT-reducing activity (white cells) in each sample were determined by counting 200 cells under microscope. We expressed the data as percentage of the following ratio: purple cells/purple+white cells. For analysis of cell surface antigens, cells were exposed to phycoerythrin (PE)−conjugated murine anti-human CD11b (DAKO corp, Carpinteria, Calif.). Analysis of fluorescence was performed on a FACScan flow cytometer (Beckton Dickinson, Mountain View, Calif.). The cell cycle was analyzed by flow cytometry after 3 days of culture of NB4 cells in the absence or presence of sodium stibogluconate (250 μg/ml) or ATRA (1 μM). Briefly, the cells were fixed in cold ethanol and incubated for 30 minutes at 4° C. in the dark with a solution of […] propidium iodide, 1 mg/ml RNase and 0.1% NP-40. Analysis was performed immediately after staining using the CELLFIT program (Becton Dickinson, Mountain View, Calif.).

[2] = tested on: acute promyelocytic leukemia (APL); conditions: in vivo; cited from earlier work
[3] = biological target: T1, GST/SHP-1 fusion protein (Mus musculus, UniProt P29351); assay: In vitro PTPase assay, dephosphorylation of a synthetic phosphotyrosine peptide; assay type: biochemical
T1 construct: made in house
Procedure: In vitro PTPase activities were measured using the commercial protein tyrosine phosphatase assay kit (UBI) following established procedure. This assay measures the in vitro dephosphorylation of a synthetic phosphotyrosine peptide (R-R-L-I-E-D-A-E-pY-A-A-R-G). Briefly, 0.01 μg of GST/PTPase fusion protein was incubated in 50 μl of Tris buffer (10 mM Tris, […]) at 22° C. for 10 minutes, followed by addition of 0.2 mM of the phosphotyrosine peptide and incubation at 22° C. for 18 hours. 100 μl of Malachite Green solution was added and incubated for 5 minutes, and the absorbance at 660 nm was measured after 5 minutes.

[4] = biological target: T2, PTP1B (GST fusion protein) (Homo sapiens, UniProt P18031); assay: as above; assay type: biochemical
T2 construct: purchased Upstate Biotechnology Inc. (UBI, Lake Placid, N.Y.)
T2 sequence (P18031 whole entry, species assumed, the tested form may be a part): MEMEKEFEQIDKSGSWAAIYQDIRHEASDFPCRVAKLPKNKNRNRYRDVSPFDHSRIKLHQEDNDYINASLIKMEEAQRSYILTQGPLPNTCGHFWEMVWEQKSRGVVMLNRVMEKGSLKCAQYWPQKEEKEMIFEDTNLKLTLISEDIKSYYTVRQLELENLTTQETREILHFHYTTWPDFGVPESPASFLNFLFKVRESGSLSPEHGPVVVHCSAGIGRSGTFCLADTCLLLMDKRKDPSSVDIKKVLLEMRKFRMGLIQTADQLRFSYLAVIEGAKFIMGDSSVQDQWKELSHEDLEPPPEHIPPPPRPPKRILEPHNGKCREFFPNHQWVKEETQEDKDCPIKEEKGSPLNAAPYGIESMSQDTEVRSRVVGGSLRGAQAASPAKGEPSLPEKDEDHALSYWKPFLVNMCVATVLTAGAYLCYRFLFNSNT
Procedure: (§1) In vitro PTPase activities were measured using the commercial protein tyrosine phosphatase assay kit (UBI) following established procedure. […] 100 μl of Malachite Green solution was added and incubated for 5 minutes, and the absorbance at 660 nm was measured after 5 minutes.

[5] = tested on: Jak2 and Stat5 tyrosine phosphorylation; assay: IL-3-induced Jak2/Stat5 tyrosine phosphorylation in Baf3 cells; assay type: cell-based, murine
Procedure: For induction of cellular protein phosphorylation by sodium stibogluconate or pervanadate, Baf3 cells were incubated in 0.1% FCS RPMI 1640 medium at 37° C. for 16 hours. The cells were then washed twice in RPMI 1640 medium and incubated with sodium stibogluconate or pervanandate (0.1 mM) for various times prior to termination by lysing cells in cold lysis buffer (50 mM Tris, pH 7.4; 150 mM NaCl; 0.2 mM Na3VO4; 20 mm NaF; 1% NP40; 2 mM PMSF; 20 μg/ml of aprotinin and 1 mM of sodium molybdic acid). To determine the effect of sodium stibogluconate or potassium antimonyl tartrate on IL-3-induced Jak/Stat phosphorylation, Baf3 cells were deprived of the growth factor for 16 hours in 0.1% FCS RPMI 1640 medium and then incubated with or without sodium stibogluconate or potassium antimonyl tartrate for 10 minutes. IL-3 was next added to the cell suspension and incubated for various times. The cells were then harvested and lysed in cold lysis buffer at 4° C. for 45 minutes. Total cell lysates (TCL) were separated in SDS-PAGE gels, blotted onto nitrocellulose membrane (Schleicher & Schuell), probed with specific antibodies and detected using an enhanced chemiluminescence kit (ECL, Amersham).
A functional role of SHP-1 in dephosphorylating the Jak family kinases during cytokine signaling has been documented. To determine whether sodium stibogluconate inhibits SHP-1 in vivo, the effect of the drug on IL-3-induced Jak2 tyrosine phosphorylation in Baf3 cells was examined. Baf3 cells deprived of IL-3 were incubated with or without the drug for 10 minutes and then stimulated with IL-3 for various times. IL-3 induced tyrosine phosphorylation of Jak2 and Stat5 in Baf3 cells in the presence or absence of the drug. However, the phosphotyrosine levels of Jak2 and Stat5 in the presence of the drug were about twice of those in cells without drug treatment as determined by densitometry analysis.

[6] = tested on: Baf3 cells; assay: IL-3-induced proliferation of Baf3 cells; assay type: cell-based, murine
Procedure: The murine hematopoietic cell line Baf3 was maintained in RPMI 1640 medium supplemented with 10% fetal calf serum (FCS) and murine IL-3 (20 units/ml) as described previously. Human myeloid cell line TF-1 was maintained in RPMI 1640 supplemented with 10% FCS and 40 ng/ml of recombinant human GM-CSF as described previously. For cell proliferation assays, cells were washed in 10% FCS medium twice, resuspended in 10% FCS medium, incubated at 37° C. for 16 hours and then cultured at 37° C. in 10% FCS medium containing various amounts of cytokines, sodium stibogluconate, or PSbT for 3-6 days as indicated. The cell numbers in proliferation assays were determined by an MTT assay or by microscopic cell counting as indicated.

[7] = biological target: T1, GST/SHP-1 fusion protein; assay: Reversibility of SHP-1 inhibition (washing of bead-bound GST/SHP-1); assay type: biochemical; conditions: preincubated with inhibitor, then washed
Excerpt: The beads were then washed 3 times in Tris buffer or without washing prior to in vitro PTPase assays.

[8] = biological target: T3, recombinant PRL-1 (Homo sapiens, UniProt Q93096); assay: In vitro PTPase assay with recombinant PRL; assay type: biochemical; conditions: peptide substrate
T3 construct: made in house; host or cells: E. coli DH5α
T3 sequence (Q93096 whole entry): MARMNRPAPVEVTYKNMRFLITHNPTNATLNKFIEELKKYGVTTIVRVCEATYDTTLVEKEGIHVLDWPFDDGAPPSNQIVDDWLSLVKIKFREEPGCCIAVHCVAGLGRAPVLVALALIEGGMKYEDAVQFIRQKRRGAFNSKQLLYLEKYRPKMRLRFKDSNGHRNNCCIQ
Procedure: as §1
(§2) Recombinant GST fusion proteins of human PRL-1, 2 and 3 phosphatases were purified with glutathione beads from DH5α bacteria transformed by pGEX vectors containing cDNA fragments encoding the human PRLs which were generated by RT-PCR from H9 cells and confirmed by sequence analysis. Activities of the purified recombinant PRL proteins in dephosphorylating DiFMUP in the absence or presence of various inhibitors were measured following established procedure.
(§3) To assess whether sodium stibogluconate is an inhibitor of oncogenic PRL phosphatases, its effects on the PTPase activity of recombinant PRLs were evaluated by in vitro PTPase assays.

[9] = biological target: T4, recombinant PRL-2 (Homo sapiens, UniProt Q12974); assay: In vitro PTPase assay with recombinant PRL; assay type: biochemical
T4 construct: made in house; host or cells: E. coli DH5α
T4 sequence (Q12974 1-167): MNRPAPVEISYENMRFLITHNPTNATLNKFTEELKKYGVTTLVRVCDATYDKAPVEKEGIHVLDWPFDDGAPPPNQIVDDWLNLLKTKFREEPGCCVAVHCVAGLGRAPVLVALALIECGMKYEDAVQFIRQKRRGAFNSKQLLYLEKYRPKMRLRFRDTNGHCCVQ
Procedure: as §1, §2, §3

[10] = biological target: T5, recombinant PRL-3 (Homo sapiens, UniProt O75365); assay: In vitro PTPase assay with recombinant PRL (peptide or DiFMUP substrate); assay type: biochemical; conditions: for inhibition of PRL-3 compared with sodium stibogluconate: DiFMUP substrate, comparable conditions
T5 construct: made in house; host or cells: E. coli DH5α
T5 sequence (O75365 whole entry): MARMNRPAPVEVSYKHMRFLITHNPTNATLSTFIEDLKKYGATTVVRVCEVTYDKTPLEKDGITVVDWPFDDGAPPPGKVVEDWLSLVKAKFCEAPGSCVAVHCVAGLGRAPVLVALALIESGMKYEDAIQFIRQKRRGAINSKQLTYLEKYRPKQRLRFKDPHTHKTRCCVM
Procedure: as §1, §2, §3

[11] = biological target: T6, intracellular Flag-PRL-1 (Homo sapiens, UniProt Q93096); assay: PTPase activity of anti-Flag immunocomplexes from NIH3T3 transfectants; assay type: cell-based; conditions: treated 5 min
T6 construct: expressed in transfected cells; host or cells: NIH3T3
T6 sequence (Q93096 whole entry): as the sequence (Q93096 whole entry) above
Procedure: (§4) An expression construct of Flag-tagged PRL-1 or control vector was transfected into NIH3T3 cells which were then treated without or with sodium stibogluconate and used for immunoprecipitation assays with a monoclonal anti-Flag antibody. The immunocomplexes were analyzed by SDS-PAGE/Western blotting and PTPase assays. A Flag-tagged protein with a molecular weight approximately 22 kDa as expected for Flag-PRL-1 was detected in the immunocomplexes from untreated or sodium stibogluconate -treated Flag-PRL-1 transfectants but not in those from the control cells (FIG. 6A).
(§5) Glucatime inactivates intracellular PRL phosphatases. NIH3T3 stable transfectants of Flag-tagged PRL-1 (A), PRL-2 (B) and PRL-3 (C) were untreated or treated with glucatime for 5 minutes and then washed to remove cell free drug. The Flag-tagged PRLs were immunoprecipitated from the cells using a monoclonal anti-Flag antibody. The amounts of Flag-tagged PRLs in the immunocomplexes were quantified by SDS-PAGE/Western blotting with the anti-Flag antibody (the top panel). Activities of the immunocomplexes in dephosphorylating a synthetic phosphotyrosine peptide were determined by in vitro PTPase assays (the low panel).

[12] = biological target: T7, intracellular Flag-PRL-3 (Homo sapiens, UniProt O75365); assay: as above; assay type: cell-based; conditions: treated 5 min
T7 construct: expressed in transfected cells; host or cells: NIH3T3
T7 sequence (O75365 whole entry): as the sequence (O75365 whole entry) above
Procedure: as §4, §5

[13] = biological target: T8, intracellular Flag-PRL-2 (Homo sapiens, UniProt Q12974); assay: as above; assay type: cell-based
T8 construct: expressed in transfected cells; host or cells: NIH3T3
T8 sequence (Q12974 1-167): T4 sequence (Q12974 1-167)
Procedure: as §4
Flag-PRL-2 transfectants were briefly treated with sodium stibogluconate for 5 minutes, washed to remove cell-free drug and then incubated for various times prior to termination by cell lysis. Anti-Flag immunocomplexes from the cells were analyzed by SDS-PAGE/Western blotting and PTPase assays. The amounts of Flag-PRL-2 proteins in the immunocomplexes were at similar levels as quantified by probing with an anti-Flag antibody. […] PTPase activity of the immunocomplexes from cells incubated for 24 hours was 78% of the untreated cells.
Glucatime-induced inactivation of intracellular PRL-2 lasts more than 24 hours. NIH3T3 stable transfectant of Flag-tagged PRL-2 was treated with glucatime for 5 minutes, washed to remove cell free drug and then incubated for various times prior to termination by lysing the cells in lysis buffer. Flag-tagged PRL-2 was immunoprecipitated from the cell lysates using a monoclonal anti-Flag antibody. The amounts of Flag-tagged PRL-2 in the immunocomplexes were quantified by SDS-PAGE/Western blotting with the anti-Flag antibody (A). Activities of the immunocomplexes in dephosphorylating a synthetic phosphotyrosine peptide were determined by in vitro PTPase assays (B).

[14] = biological target: T9, intracellular PTP1B (Mus musculus, UniProt P35821); assay: PTPase activity of anti-PTP1B immunocomplexes from NIH3T3 cells; assay type: cell-based; conditions: treated 5 minutes
T9 construct: endogenous in cells; host or cells: NIH3T3
T9 sequence (P35821 whole entry): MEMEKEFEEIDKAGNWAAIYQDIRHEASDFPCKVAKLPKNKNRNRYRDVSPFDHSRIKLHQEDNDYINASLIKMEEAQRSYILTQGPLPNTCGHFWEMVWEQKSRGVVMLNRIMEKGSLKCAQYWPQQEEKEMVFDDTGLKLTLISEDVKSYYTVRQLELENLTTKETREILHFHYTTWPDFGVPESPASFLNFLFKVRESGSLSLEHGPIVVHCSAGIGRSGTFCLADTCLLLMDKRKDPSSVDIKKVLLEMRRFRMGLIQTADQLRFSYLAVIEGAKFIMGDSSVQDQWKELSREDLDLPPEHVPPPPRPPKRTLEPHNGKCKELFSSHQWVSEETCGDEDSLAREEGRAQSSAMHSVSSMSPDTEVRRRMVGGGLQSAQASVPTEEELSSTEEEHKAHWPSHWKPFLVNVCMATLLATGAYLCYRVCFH
Procedure: NIH3T3 cells were untreated or treated with glucatime for 5 minutes. PTP1B protein was immunoprecipitated from the cells using an anti-PTP1B antibody. The amounts of PTP1B in the immunocomplexes were quantified by SDS-PAGE/Western blotting with the anti-PTP1B antibody (A). Activities of the immunocomplexes in dephosphorylating a synthetic phosphotyrosine peptide were determined by in vitro PTPase assays (B).

[15] = tested on: human cancer cell lines (A549, DR, HEY, MDA231, SK-N-SH, WM9); assay: Growth of human cancer cell lines with glucatime and/or IFNα (MTT, 6 days); assay type: cell-based
Procedure: Growth of human cancer cell lines cultured in the absence or presence of glucatime and/or IFNα (500 U/ml) for 6 days were determined by MTT assays. These cell lines were of different human malignancies, including lung cancer (A549), lymphoma (DR), ovarian cancer (HEY), breast cancer (MDA231, or MDA), neuroblastoma (SK-N-SH, or SK) and melanoma (WM9).

[16] = tested on: PTPases; assay: PTPase inhibition in vitro by ketoconazole; assay type: biochemical

Compound: CC1=C(/C=C/C(C)=C/C=C/C(C)=C/C(=O)O)C(C)(C)CCC1 [ATRA, all-trans-retinoic acid]
cell cycle arrest (DNA content analysis) [1]: arrested at G1 phase
long term APL-free survival [2]: exceeding 75%

Compound: O.O.O.O=C([O-])[C@H]([O-])[C@@H]([O-])C(=O)[O-].O=C([O-])[C@H]([O-])[C@@H]([O-])C(=O)[O-].[K+].[K+].[Sb+3].[Sb+3] [PSbT, potassium antimonyl tartrate]
inhibition of SHP-1 ([3]; at 11,000 μg/ml): no detectable inhibition
inhibition of PTP1B ([4]; at 11,000 μg/ml): no detectable inhibition
IL-3-induced Stat5 phosphorylation [5]: failed to enhance
IL-3-induced proliferation of Baf3 cells [6]: failed to enhance
toxicity against Baf3 cells [6]: marked toxicity

Compound: CNC[C@H](O)[C@@H](O)[C@H](O)[C@H](O)CO.[O]=[Sb]([OH])([OH])[OH] [glucatime, meglumine antimonate]
effect against recombinant PTP1B in vitro [4]: partial inhibitory effect
reversibility of SHP-1 inhibition [7]: irreversible
inhibition of recombinant PRL-1 [8]: potent inhibitor
inhibition of recombinant PRL-2 ([9]; peptide substrate): potent inhibitor
reversibility of PRL-2 inactivation ([9]; washing process / stable complex): irreversible
inhibition of recombinant PRL-3 ([10]; peptide substrate): potent inhibitor
PTPase activity of Flag-PRL-1 immunocomplexes from treated transfectants [11]: inactivates
PTPase activity of Flag-PRL-3 immunocomplexes from treated transfectants [12]: inactivates
PTPase activity of Flag-PRL-2 immunocomplexes from treated transfectants ([13]; treated 5 min): inactivates
duration of intracellular PRL-2 inactivation ([13]; treated 5 minutes, washed to remove cell free drug): more than 24 hours
inhibition of intracellular PTP1B [14]: partial inhibition
IFNα-induced growth inhibition in presence of glucatime ([15]; IFNα 500 U/ml): augments
growth of human cancer cell lines in culture ([15]; MTT): inhibits the growth

PTPase inhibition in vitro [16]: inhibits different PTPases
Compound: CC(=O)N1CCN(c2ccc(OCC3COC(Cn4ccnc4)(c4ccc(Cl)cc4Cl)O3)cc2)CC1 (stereo not shown) [ketoconazole]

Compound: [Na+].[Na+].[Na+].[O]=[V]([O-])([O-])[O-] [sodium orthovanadate]
inhibition of PRL-3 compared with sodium stibogluconate [10]: less effective

inhibition of SHP-1 compared with sodium stibogluconate ([3]; under comparable conditions): less effective
reversibility of SHP-1 inhibition [7]: reversible
inhibition of PRL-3 compared with sodium stibogluconate [10]: less effective
Compound: Cc1ccc(C(=O)Nc2ccc(S(=O)(=O)O)c3cc(S(=O)(=O)O)cc(S(=O)(=O)O)c23)cc1NC(=O)c1cccc(NC(=O)Nc2cccc(C(=O)Nc3cc(C(=O)Nc4ccc(S(=O)(=O)O)c5cc(S(=O)(=O)O)cc(S(=O)(=O)O)c45)ccc3C)c2)c1 [suramin]
